Measured values: patent US20120270237A9, “METHODS FOR THE IDENTIFICATION OF KINASE INTERACTING MOLECULES AND FOR THE PURIFICATION OF KINASE PROTEINS” (Cellzone AG, priority 2009, published 2012)

How the values were obtained:
Assay in all cases: Kinobeads competition binding with immobilized CZC25342, mixed HeLa placenta lysates (Example 5, Table 7)
[1] = target: T1, kinases from mixed HeLa placenta lysates (Homo sapiens, UniProt O75676); settings: kinase MSK2; 10 μM free compound; HeLa Placenta lysate mix
T1 construct: capturing and identification of kinases from mixed HeLa placenta lysates; endogenous in cells; host or cells: mixed lysate of HeLa cells and placenta tissue
Method in brief: (§1)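 Mixed HeLa/placenta lysate was preincubated with 10 μM free CZC25342 or DMSO, followed by capture on beads bearing immobilized compound. Bound proteins were eluted, separated by SDS-PAGE, trypsin-digested, iTRAQ-labelled and quantified by LC-MS/MS. Percent competition was taken against the DMSO control.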

[2] = target: T2, kinases from mixed HeLa placenta lysates (Homo sapiens, UniProt P30291); settings: kinase Wee1; 10 μM free compound; HeLa Placenta lysate mix
T2 construct: capturing and identification of kinases from mixed HeLa placenta lysates; endogenous in cells; host or cells: mixed lysate of HeLa cells and placenta tissue
T2 sequence (P30291 whole entry): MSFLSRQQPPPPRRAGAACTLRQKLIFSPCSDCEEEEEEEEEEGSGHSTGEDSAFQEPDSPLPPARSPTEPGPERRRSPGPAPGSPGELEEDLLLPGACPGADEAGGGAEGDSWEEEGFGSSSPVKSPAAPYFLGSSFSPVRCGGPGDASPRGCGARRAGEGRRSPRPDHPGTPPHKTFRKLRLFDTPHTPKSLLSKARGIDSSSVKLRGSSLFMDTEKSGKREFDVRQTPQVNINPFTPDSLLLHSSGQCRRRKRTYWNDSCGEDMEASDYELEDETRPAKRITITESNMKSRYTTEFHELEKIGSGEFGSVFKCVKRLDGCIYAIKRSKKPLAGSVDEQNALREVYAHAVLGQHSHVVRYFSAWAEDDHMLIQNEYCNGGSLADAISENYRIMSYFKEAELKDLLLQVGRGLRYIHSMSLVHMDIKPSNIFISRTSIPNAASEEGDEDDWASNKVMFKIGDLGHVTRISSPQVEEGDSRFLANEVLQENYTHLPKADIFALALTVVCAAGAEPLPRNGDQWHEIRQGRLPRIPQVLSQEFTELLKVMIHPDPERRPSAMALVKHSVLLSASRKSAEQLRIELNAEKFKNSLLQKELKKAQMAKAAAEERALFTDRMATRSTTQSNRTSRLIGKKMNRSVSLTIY
Method in brief: as §1

[3] = target: T3, kinases from mixed HeLa placenta lysates (Homo sapiens, UniProt P07947); settings: kinase YES; 10 μM free compound; HeLa Placenta lysate mix
T3 construct: capturing and identification of kinases from mixed HeLa placenta lysates; endogenous in cells; host or cells: mixed lysate of HeLa cells and placenta tissue
Method in brief: as §1

[4] = target: T4, kinases from mixed HeLa placenta lysates (Homo sapiens, UniProt Q13976); settings: kinase PKG1; 10 μM free compound; HeLa Placenta lysate mix
T4 construct: capturing and identification of kinases from mixed HeLa placenta lysates; endogenous in cells; host or cells: mixed lysate of HeLa cells and placenta tissue
Method in brief: as §1

[5] = target: T5, kinases from mixed HeLa placenta lysates (Homo sapiens, UniProt Q9UHD2); settings: kinase TBK1; 10 μM free compound; HeLa Placenta lysate mix
T5 construct: capturing and identification of kinases from mixed HeLa placenta lysates; endogenous in cells; host or cells: mixed lysate of HeLa cells and placenta tissue
Method in brief: as §1

[6] = target: T6, kinases from mixed HeLa placenta lysates (Homo sapiens, UniProt P45983); settings: kinase JNK1; 10 μM free compound; HeLa Placenta lysate mix
T6 construct: capturing and identification of kinases from mixed HeLa placenta lysates; endogenous in cells; host or cells: mixed lysate of HeLa cells and placenta tissue
Method in brief: as §1

[7] = target: T7, kinases from mixed HeLa placenta lysates (Homo sapiens, UniProt P12931); settings: kinase SRC; 10 μM free compound; HeLa Placenta lysate mix
T7 construct: capturing and identification of kinases from mixed HeLa placenta lysates; endogenous in cells; host or cells: mixed lysate of HeLa cells and placenta tissue
T7 sequence (P12931 whole entry): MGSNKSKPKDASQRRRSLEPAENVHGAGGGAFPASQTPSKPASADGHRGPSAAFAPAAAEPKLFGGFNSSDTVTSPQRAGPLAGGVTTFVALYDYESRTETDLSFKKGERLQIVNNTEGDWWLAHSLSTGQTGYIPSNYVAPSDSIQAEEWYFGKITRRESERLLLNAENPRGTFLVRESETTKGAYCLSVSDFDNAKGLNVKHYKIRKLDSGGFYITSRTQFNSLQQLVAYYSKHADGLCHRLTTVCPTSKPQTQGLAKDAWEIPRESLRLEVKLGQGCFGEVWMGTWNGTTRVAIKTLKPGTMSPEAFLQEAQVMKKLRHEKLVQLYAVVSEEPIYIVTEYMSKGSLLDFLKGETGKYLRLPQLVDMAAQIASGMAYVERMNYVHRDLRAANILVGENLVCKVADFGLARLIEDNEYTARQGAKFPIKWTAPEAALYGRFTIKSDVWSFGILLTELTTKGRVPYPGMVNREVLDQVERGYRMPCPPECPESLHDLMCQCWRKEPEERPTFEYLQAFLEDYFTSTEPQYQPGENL
Method in brief: as §1

[8] = target: T8, kinases from mixed HeLa placenta lysates (Homo sapiens, UniProt P07948); settings: kinase LYN; 10 μM free compound; HeLa Placenta lysate mix
T8 construct: capturing and identification of kinases from mixed HeLa placenta lysates; endogenous in cells; host or cells: mixed lysate of HeLa cells and placenta tissue
T8 sequence (P07948 whole entry): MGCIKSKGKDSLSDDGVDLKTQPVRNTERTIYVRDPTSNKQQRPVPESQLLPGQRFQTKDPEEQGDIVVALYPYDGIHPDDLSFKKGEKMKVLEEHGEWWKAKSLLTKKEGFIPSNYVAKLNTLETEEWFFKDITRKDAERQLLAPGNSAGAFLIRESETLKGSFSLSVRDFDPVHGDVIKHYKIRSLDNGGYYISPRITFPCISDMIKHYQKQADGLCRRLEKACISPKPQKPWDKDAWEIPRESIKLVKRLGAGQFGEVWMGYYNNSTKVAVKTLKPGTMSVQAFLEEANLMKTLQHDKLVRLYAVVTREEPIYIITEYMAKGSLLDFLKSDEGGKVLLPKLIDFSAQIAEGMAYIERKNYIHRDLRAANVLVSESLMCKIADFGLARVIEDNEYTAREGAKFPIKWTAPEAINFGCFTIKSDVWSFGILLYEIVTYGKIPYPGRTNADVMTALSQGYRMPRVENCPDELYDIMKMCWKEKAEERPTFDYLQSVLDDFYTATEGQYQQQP
Method in brief: as §1

[9] = target: T9, kinases from mixed HeLa placenta lysates (Homo sapiens, UniProt P53350); settings: kinase PLK1; 10 μM free compound; HeLa Placenta lysate mix
T9 construct: capturing and identification of kinases from mixed HeLa placenta lysates; endogenous in cells; host or cells: mixed lysate of HeLa cells and placenta tissue
Method in brief: as §1

[10] = target: T10, kinases from mixed HeLa placenta lysates (Homo sapiens, UniProt Q13131); settings: kinase AMPKa1; 10 μM free compound; HeLa Placenta lysate mix
T10 construct: capturing and identification of kinases from mixed HeLa placenta lysates; endogenous in cells; host or cells: mixed lysate of HeLa cells and placenta tissue
Method in brief: as §1

[11] = target: T11, kinases from mixed HeLa placenta lysates (Homo sapiens, UniProt P28482); settings: kinase Erk2; 10 μM free compound; HeLa Placenta lysate mix
T11 construct: capturing and identification of kinases from mixed HeLa placenta lysates; endogenous in cells; host or cells: mixed lysate of HeLa cells and placenta tissue
T11 sequence (P28482 whole entry): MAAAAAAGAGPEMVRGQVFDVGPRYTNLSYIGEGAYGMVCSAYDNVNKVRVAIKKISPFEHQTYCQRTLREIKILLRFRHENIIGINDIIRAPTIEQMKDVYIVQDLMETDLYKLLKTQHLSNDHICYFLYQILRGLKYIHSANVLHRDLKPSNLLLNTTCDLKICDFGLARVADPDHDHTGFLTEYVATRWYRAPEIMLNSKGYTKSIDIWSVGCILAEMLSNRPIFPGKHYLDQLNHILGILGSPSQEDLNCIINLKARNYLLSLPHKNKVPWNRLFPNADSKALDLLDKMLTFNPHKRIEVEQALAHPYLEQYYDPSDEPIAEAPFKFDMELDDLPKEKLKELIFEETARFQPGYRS
Method in brief: as §1

[12] = target: T12, kinases from mixed HeLa placenta lysates (Homo sapiens, UniProt P49841); settings: kinase GSK3B; 10 μM free compound; HeLa Placenta lysate mix
T12 construct: capturing and identification of kinases from mixed HeLa placenta lysates; endogenous in cells; host or cells: mixed lysate of HeLa cells and placenta tissue
Method in brief: as §1

[13] = target: T13, kinases from mixed HeLa placenta lysates (Homo sapiens, UniProt O75460); settings: kinase IRE1; 10 μM free compound; HeLa Placenta lysate mix
T13 construct: capturing and identification of kinases from mixed HeLa placenta lysates; endogenous in cells; host or cells: mixed lysate of HeLa cells and placenta tissue
T13 sequence (O75460 19-977): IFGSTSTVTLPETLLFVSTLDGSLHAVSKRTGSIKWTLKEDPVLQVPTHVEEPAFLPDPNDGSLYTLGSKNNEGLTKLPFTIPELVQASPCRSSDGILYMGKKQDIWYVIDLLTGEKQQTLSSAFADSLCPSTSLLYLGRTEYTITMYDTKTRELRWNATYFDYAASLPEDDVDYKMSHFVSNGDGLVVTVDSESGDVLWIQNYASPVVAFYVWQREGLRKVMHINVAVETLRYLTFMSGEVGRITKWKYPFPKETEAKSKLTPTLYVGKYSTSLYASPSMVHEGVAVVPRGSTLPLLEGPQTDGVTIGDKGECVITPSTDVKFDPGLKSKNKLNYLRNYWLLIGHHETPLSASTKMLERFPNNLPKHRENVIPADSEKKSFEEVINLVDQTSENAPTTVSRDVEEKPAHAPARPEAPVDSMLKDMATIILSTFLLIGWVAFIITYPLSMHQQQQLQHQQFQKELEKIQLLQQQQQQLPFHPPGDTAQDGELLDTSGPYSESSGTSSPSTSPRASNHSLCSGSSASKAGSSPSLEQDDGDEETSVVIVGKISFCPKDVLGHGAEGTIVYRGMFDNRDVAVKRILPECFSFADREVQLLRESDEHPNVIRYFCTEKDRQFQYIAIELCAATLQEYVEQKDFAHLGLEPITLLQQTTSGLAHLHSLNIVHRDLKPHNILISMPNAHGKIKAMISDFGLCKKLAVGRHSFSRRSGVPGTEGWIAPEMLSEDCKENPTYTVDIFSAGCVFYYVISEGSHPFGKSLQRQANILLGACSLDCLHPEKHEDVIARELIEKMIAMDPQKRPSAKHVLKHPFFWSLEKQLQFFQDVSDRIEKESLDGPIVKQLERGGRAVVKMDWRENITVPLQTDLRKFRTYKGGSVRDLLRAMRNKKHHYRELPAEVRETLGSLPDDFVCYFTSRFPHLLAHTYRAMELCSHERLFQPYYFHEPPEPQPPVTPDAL
Method in brief: as §1

[14] = target: T14, kinases from mixed HeLa placenta lysates (Homo sapiens, UniProt Q9Y616); settings: kinase IRAK3; 10 μM free compound; HeLa Placenta lysate mix
T14 construct: capturing and identification of kinases from mixed HeLa placenta lysates; endogenous in cells; host or cells: mixed lysate of HeLa cells and placenta tissue
Method in brief: as §1

[15] = target: T15, kinases from mixed HeLa placenta lysates (Homo sapiens, UniProt P16591); settings: kinase FER; 10 μM free compound; HeLa Placenta lysate mix
T15 construct: capturing and identification of kinases from mixed HeLa placenta lysates; endogenous in cells; host or cells: mixed lysate of HeLa cells and placenta tissue
Method in brief: as §1

[16] = target: T16, kinases from mixed HeLa placenta lysates (Homo sapiens, UniProt Q6PHR2); settings: kinase ULK3; 10 μM free compound; HeLa Placenta lysate mix
T16 construct: capturing and identification of kinases from mixed HeLa placenta lysates; endogenous in cells; host or cells: mixed lysate of HeLa cells and placenta tissue
T16 sequence (Q6PHR2 whole entry): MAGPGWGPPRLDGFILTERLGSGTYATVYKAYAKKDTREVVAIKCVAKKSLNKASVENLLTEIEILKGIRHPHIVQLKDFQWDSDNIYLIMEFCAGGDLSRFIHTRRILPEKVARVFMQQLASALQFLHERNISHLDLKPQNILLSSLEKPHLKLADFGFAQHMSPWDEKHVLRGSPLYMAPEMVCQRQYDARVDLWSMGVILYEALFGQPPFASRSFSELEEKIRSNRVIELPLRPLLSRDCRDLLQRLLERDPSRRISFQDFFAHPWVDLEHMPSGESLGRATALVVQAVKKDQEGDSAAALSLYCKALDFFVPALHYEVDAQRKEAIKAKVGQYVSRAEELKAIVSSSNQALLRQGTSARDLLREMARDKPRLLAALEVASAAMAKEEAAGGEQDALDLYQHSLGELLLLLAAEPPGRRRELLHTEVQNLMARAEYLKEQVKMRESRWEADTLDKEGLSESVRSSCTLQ
Method in brief: as §1

[17] = target: T17, kinases from mixed HeLa placenta lysates (Homo sapiens, UniProt Q04912); settings: kinase RON; 10 μM free compound; HeLa Placenta lysate mix
T17 construct: capturing and identification of kinases from mixed HeLa placenta lysates; endogenous in cells; host or cells: mixed lysate of HeLa cells and placenta tissue
Method in brief: as §1

[18] = target: T18, kinases from mixed HeLa placenta lysates (Homo sapiens, UniProt P15735); settings: kinase PHKg2; 10 μM free compound; HeLa Placenta lysate mix
T18 construct: capturing and identification of kinases from mixed HeLa placenta lysates; endogenous in cells; host or cells: mixed lysate of HeLa cells and placenta tissue
T18 sequence (P15735 whole entry): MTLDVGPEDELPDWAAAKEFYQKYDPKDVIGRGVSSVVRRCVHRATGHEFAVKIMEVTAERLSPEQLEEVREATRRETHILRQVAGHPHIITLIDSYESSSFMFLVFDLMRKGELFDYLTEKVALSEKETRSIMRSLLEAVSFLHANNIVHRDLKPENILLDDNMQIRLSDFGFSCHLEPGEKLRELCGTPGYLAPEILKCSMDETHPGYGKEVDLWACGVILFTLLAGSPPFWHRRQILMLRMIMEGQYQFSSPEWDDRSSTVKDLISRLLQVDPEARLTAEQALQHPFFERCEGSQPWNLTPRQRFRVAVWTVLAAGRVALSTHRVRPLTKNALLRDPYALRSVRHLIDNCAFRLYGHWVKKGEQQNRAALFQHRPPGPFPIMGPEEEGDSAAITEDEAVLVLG
Method in brief: as §1

[19] = target: T19, kinases from mixed HeLa placenta lysates (Homo sapiens, UniProt P78356); settings: kinase PIP5K2B; 10 μM free compound; HeLa Placenta lysate mix
T19 construct: capturing and identification of kinases from mixed HeLa placenta lysates; endogenous in cells; host or cells: mixed lysate of HeLa cells and placenta tissue
Method in brief: as §1

[20] = target: T20, kinases from mixed HeLa placenta lysates (Homo sapiens, UniProt O75716); settings: kinase MPSK1; 10 μM free compound; HeLa Placenta lysate mix
T20 construct: capturing and identification of kinases from mixed HeLa placenta lysates; endogenous in cells; host or cells: mixed lysate of HeLa cells and placenta tissue
Method in brief: as §1

[21] = target: T21, kinases from mixed HeLa placenta lysates (Homo sapiens, UniProt Q5TCX8); settings: kinase MLK4; 10 μM free compound; HeLa Placenta lysate mix
T21 construct: capturing and identification of kinases from mixed HeLa placenta lysates; endogenous in cells; host or cells: mixed lysate of HeLa cells and placenta tissue
Method in brief: as §1

[22] = target: T22, kinases from mixed HeLa placenta lysates (Homo sapiens, UniProt Q08345); settings: kinase DDR1; 10 μM free compound; HeLa Placenta lysate mix
T22 construct: capturing and identification of kinases from mixed HeLa placenta lysates; endogenous in cells; host or cells: mixed lysate of HeLa cells and placenta tissue
T22 sequence (Q08345 19-913): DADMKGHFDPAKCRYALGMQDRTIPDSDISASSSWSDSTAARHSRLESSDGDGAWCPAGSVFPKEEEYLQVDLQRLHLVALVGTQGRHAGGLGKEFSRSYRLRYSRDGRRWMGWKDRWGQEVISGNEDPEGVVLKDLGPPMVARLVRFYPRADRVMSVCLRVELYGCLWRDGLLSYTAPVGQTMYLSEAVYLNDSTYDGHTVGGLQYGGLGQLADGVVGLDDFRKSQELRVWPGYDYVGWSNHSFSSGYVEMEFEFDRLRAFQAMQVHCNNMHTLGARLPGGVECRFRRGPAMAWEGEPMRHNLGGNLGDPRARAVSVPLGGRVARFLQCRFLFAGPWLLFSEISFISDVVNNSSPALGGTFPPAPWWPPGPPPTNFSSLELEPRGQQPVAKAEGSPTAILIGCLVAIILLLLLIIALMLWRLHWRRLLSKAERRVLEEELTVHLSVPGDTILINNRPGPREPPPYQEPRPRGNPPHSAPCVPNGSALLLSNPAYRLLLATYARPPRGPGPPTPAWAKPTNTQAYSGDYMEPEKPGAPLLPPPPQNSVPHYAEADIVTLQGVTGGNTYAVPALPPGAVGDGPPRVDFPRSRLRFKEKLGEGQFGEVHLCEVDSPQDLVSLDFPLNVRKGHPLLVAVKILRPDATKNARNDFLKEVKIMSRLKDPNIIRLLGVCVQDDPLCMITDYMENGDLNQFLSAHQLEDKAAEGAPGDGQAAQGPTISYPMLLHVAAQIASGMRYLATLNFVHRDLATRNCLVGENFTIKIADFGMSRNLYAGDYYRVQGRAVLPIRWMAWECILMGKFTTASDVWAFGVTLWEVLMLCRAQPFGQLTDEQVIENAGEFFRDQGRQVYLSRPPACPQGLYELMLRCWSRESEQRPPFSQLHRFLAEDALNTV
Method in brief: as §1

[23] = target: T23, kinases from mixed HeLa placenta lysates (Homo sapiens, UniProt P68400); settings: kinase CK2a1; 10 μM free compound; HeLa Placenta lysate mix
T23 construct: capturing and identification of kinases from mixed HeLa placenta lysates; endogenous in cells; host or cells: mixed lysate of HeLa cells and placenta tissue
Method in brief: as §1

[24] = target: T24, kinases from mixed HeLa placenta lysates (Homo sapiens, UniProt P29597); settings: kinase TYK2; 10 μM free compound; HeLa Placenta lysate mix
T24 construct: capturing and identification of kinases from mixed HeLa placenta lysates; endogenous in cells; host or cells: mixed lysate of HeLa cells and placenta tissue
Method in brief: as §1

CS(=O)(=O)Nc1ccccc1Nc1nc(Nc2cccc(OCCN)c2)ncc1F [CZC25342, N-(2-(2-(3-(2-aminoethoxy)phenylamino)-5-fluoropyrimidin-4-ylamino)phenyl)methanesulfonamide]
Competition % MSK2 [1]: 93.2%
Competition % Wee1 [2]: 97.5%
Competition % YES [3]: 91.7%
Competition % PKG1 [4]: 79.3%
Competition % TBK1 [5]: 88.8%
Competition % JNK1 [6]: 84.3%
Competition % SRC [7]: 89.5%
Competition % LYN [8]: 83.1%
Competition % PLK1 [9]: 94.6%
Competition % AMPKa1 [10]: 95.2%
Competition % Erk2 [11]: 48.5%
Competition % GSK3B [12]: 92.5%
Competition % IRE1 [13]: 83.4%
Competition % IRAK3 [14]: 86.2%
Competition % FER [15]: 96.7%
Competition % ULK3 [16]: 94.8%
Competition % RON [17]: 96%
Competition % PHKg2 [18]: 93.4%
Competition % PIP5K2B [19]: 97.2%
Competition % MPSK1 [20]: 92.1%
Competition % MLK4 [21]: 85.8%
Competition % DDR1 [22]: 94.1%
Competition % CK2a1 [23]: 95.2%
Competition % TYK2 [24]: 96.6%
